The source of these data is patent US8680282B2, “Cyclic inhibitors of carnitine palmitoyltransferase and treating cancer” (University Health Network, priority 2007, dated 2014).

Experiment [1] has as its system cancer cell lines from breast, lung, colon, brain, prostate and ovarian cancer. Briefly: Cancer cell growth inhibition, SRB assay, cell line panel. It is filed as cell-based, human. The settings on record: cell lines of Tables 2 and 3; for S11: at 10 μM, all lines other than MDA-231, A549, H460, HCT-8. As for the experimental part:
(§1) Human cancer cells (MCF-7, H358, H460, HCT116 p53^+/+, HCT116 p53^−/−, A172, PC-3, DU-145 and SW626) were maintained in DMEM medium containing 10% Fetal Bovine Serum (FBS) (Invitrogen, Burlington, ON, Canada) and normal cells HMEC, 184A1, NHBE and PrEC were cultured in MEGM, MEGM plus transferring and cholera toxin, BEGM and PrEGM supplemented with various growth factors (Cambrex, Charles city, Iowa, USA), respectively.
Compounds of Examples S1 to S30, and 4-(carboxymethyl)-4-(6-(3-hexyloxy)phenoxy)hexanoamido)-1,1-dimethylpiperidinium 2,2,2-trifluoroactate (“Compound A”) were tested in this example. Each of the tested compounds was dissolved in DMSO and further diluted in cell culture medium for the experiments performed. […] Cell viability was assessed by Sulforhodamine B (SRB) assay at Day 6.
Sulforhodamine B (SRB) (Sigma, Oakville, ON, Canada) is a water-soluble dye that binds to the basic amino acids of the cellular proteins. […] Absorbance was read at 570 nm on a spectrophotometer. […] Growth inhibition (%) was determined as percentage of cells remaining compared to the DMSO-treated cells as control.
All of the compounds shown in Tables 2 and 3 had activity against at least one cell line (“NT” means not tested; and “NE” means no activity at 10 micromolar—activity at higher concentrations was not measured).

The target in experiment [2] is T1, human CPT1A (Homo sapiens, UniProt P50416).
T1 construct: made in house; host or cells: Saccharomyces cerevisiae (pESC-trp) or cultured mammalian cells (pCDNA3.1); mitochondrial extract
T1 sequence (P50416 1-773): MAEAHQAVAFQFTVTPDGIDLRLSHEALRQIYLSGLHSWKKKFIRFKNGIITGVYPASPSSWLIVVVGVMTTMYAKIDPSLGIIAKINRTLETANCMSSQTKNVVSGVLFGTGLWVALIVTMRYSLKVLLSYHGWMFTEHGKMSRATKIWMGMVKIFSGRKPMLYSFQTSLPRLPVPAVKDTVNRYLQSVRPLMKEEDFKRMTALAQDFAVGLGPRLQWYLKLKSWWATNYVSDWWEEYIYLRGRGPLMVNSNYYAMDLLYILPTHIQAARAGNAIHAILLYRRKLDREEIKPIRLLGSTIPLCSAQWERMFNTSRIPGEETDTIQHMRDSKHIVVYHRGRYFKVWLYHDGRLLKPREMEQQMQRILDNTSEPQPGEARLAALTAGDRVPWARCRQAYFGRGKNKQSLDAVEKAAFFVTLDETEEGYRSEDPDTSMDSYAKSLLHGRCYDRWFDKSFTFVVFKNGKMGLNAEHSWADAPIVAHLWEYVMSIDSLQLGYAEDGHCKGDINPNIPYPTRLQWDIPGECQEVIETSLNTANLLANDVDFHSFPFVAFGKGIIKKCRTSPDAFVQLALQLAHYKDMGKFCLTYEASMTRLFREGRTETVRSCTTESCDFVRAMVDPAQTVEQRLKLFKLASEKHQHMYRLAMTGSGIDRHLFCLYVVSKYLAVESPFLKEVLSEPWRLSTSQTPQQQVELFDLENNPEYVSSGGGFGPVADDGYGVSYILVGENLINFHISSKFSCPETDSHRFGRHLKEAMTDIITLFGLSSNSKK
Briefly: Human CPT1A LC/MS assay. It is filed as biochemical. The note with it: human CPT1A LC/MS assay, dose response format. From the text:
Nucleotide sequences encoding human CPT1 enzymes were individually cloned into the yeast expression vector pESC-trp at the Cla1 (5′ terminus) and Pac1 (3′ terminus) restriction sites by PCR amplification of the open reading frame using oligonucleotide primers designed to encode the wild-type CPT1 protein sequence. Standard molecular biology techniques were used to transform and express the CPT1 proteins in the yeast Saccharomyces cerevisiae. The yeast cells were lysed by enzymatic degradation of the cell wall by Zymolase, and the mitochondria were isolated by standard biochemical techniques. The integrity of the isolated mitochondria was monitored by determining the activity of succinate dehydrogenase in the mitochondrial preparations. The mitochondrial extracts were stored at −80° C. in buffer containing 10 mM HEPES pH 7.4 and 250 mM sucrose.
Human CPT1 (A, B, C) genes were additionally cloned into the pCDNA3.1 vector individually for expression in cultured mammalian cells. Cells expressing the exogenous CPT1A were identified and grown under standard conditions. Mammalian cells were harvested, and mitochondrial extracts prepared using standard biochemical methods. The mitochondrial extracts were stored at −80° C. in buffer containing 10 mM HEPES pH 7.4 and 250 mM sucrose.
Assays were performed in 96-well plate format. Each 100 μL reaction contained 40 mM KCl, 50 mM TrisHCl pH 7.5, and 250 mM mannitol (Assay Buffer), and 1.6 μg protein of an extract, 20 μM palmitoyl-CoA, 50 μM L-carnitine, and 10 ug/mL BSA. Reactions were incubated at room temperature and stopped after 10 minutes by extraction with 200 μL of water saturated n-butanol containing myristoyl carnitine (500 nM) as an internal standard. The samples were thoroughly mixed, and the phases separated by centrifugation. Samples were prepared for analysis with a 10 fold dilution of the n-butanol phase containing the reaction product palmitoyl carnitine into a 50:50 (acetonitrile:water) solvent for analysis. 5 μL of prepared sample was separated on a Phenomenex Jupiter 5μ C4 reverse-phase column using an Agilent 1100 HPLC with a gradient from 50% acetonitrile (0.5% acetic acid) to 100% acetonitrile and quantified by detection with a Bruker Esquire 3000plus mass spectrometer. The abundance of the palmitoyl carnitine product was determined relative to the internal standard and the actual quantity of palmitoyl carnitine can be determined from a standard curve prepared using the n-butanol solution containing the internal standard.
Compounds were evaluated in two formats, a screening format, and a dose response format. The screening format was performed by adding 25 μL compound in 20% DMSO and Assay Buffer to 25 μL of extract containing […] and Assay Buffer, followed by a 10 minute incubation at room temperature. 50 μL of 40 μM palmitoyl-CoA in Assay Buffer was added to the reaction mixture, mixed and incubated for 10 minutes at room temperature. A negative control for activity was also performed where the carnitine was omitted from the reaction. A positive control for activity was also performed by omitting compound from the solution containing 20% DMSO and Assay Buffer. The reaction mixture was extracted and analyzed as described above. The inhibition by compound was determined by comparing the control relative activity to the relative activity observed in wells containing the compound. Relative activity was determined by subtracting the relative intensity (area palmitoyl carnitine/area myristoyl carnitine) observed in the negative control from the relative intensity observed in the experimental well, and dividing by the relative activity observed in the positive control.
[formula] Compound characterization by dose response format was performed using the above described assay conditions and a 16 point compound titration in 2 fold compound dilution steps. The DMSO concentration was kept constant at 20% (v/v) for all compound concentrations.

Experiment [3] has as its system A172. Briefly: Cancer cell growth inhibition, SRB assay. It is filed as cell-based, human. The settings on record: A172; at 10 μM; SRB at Day 6; NE = no activity at 10 micromolar. As for the experimental part: as §1
(§2) Compounds of Examples S1 to S30, and 4-(carboxymethyl)-4-(6-(3-hexyloxy)phenoxy)hexanoamido)-1,1-dimethylpiperidinium 2,2,2-trifluoroactate (“Compound A”) were tested in this example. Each of the tested compounds was dissolved in DMSO and further diluted in cell culture medium for the experiments performed. Cells were seeded into 96-well plates with 1,500-5,000 cells/well according to cell growth rate. After 24 h, DMEM medium containing 10% FBS were changed to DMEM containing 3% FBS for cancer cells. The compound was added into the cell culture at the indicated concentrations, and the final concentration of DMSO was adjusted to a final concentration of 0.1%. Cell viability was assessed by Sulforhodamine B (SRB) assay at Day 6.
(§3) Sulforhodamine B (SRB) (Sigma, Oakville, ON, Canada) is a water-soluble dye that binds to the basic amino acids of the cellular proteins. Thus, colorimetric measurement of the bound dye provides an estimate of the total protein mass that is related to the cell number. The cells were fixed in situ by gently aspirating off the culture media and adding 50 ul of cold 10% Tri-chloroacetic Acid (TCA) per well and incubated at 4° C. for 30-60 min. The plates were washed five times with water and allowed to air dry for 5 min. 50 ul of 0.4% (w/v) SRB dissolved in 1% (v/v) acetic acid were added into each well, plates were then incubated at RT for 30 min for staining, washed four times with 1% acetic acid to remove any unbound dye and then allowed to air dry for 5 min. Stain was solubilized with 100 ul of 10 mM Tris pH 10.5 per well. Absorbance was read at 570 nm on a spectrophotometer. GI50 (compound concentration required for 50% of growth inhibition) was calculated using GraphPad Prism 4.0 software (GraphPad Software, Inc., San Diego, Calif., USA). Growth inhibition (%) was determined as percentage of cells remaining compared to the DMSO-treated cells as control.
(In general: Sulforhodamine B stains cellular protein and so reports cell mass.)

For experiment [4], the system named is PC-3. Briefly: Cancer cell growth inhibition, SRB assay. It is filed as cell-based, human. The note with it: PC-3; at 10 μM; SRB at Day 6; NE = no activity at 10 micromolar. Here is the method:
as §1, §2, §3

The subject of experiment [5] is H358. Briefly: Cancer cell growth inhibition, SRB assay. It is filed as cell-based, human. The arrangement: Percentage of Growth Inhibition: unit not given here. The settings on record: H358; at 10 μM; SRB at Day 6; NE = no activity at 10 micromolar. As for the experimental part:
as §1, §2, §3

The test system of experiment [6] is MCF-7. Briefly: Cancer cell growth inhibition, SRB assay. It is filed as cell-based, human. The arrangement: Percentage of Growth Inhibition: scale not given here. The note with it: MCF-7; at 10 μM; SRB at Day 6; NE = no activity at 10 micromolar. Here is the method:
as §1, §2, §3

Experiment [7] deals with SW626. Briefly: Cancer cell growth inhibition, SRB assay. It is filed as cell-based, human. More on the design: Percentage of Growth Inhibition: scale not given here. The note with it: SW626; at 10 μM; SRB at Day 6; NE = no activity at 10 micromolar. As for the experimental part: as §1, §2, §3
Experiment [8] has as its system HCT-8. Briefly: Cancer cell growth inhibition, SRB assay. The note with it: at 10 μM, SRB at Day 6. It is filed as cell-based, human.

Bounds are passed on as bounds.

Broadly, the IC50 is the concentration needed to halve the response being measured. Regarding `CCCCCc1ccc(S(=O)(=O)NC2(CC(=O)O)CCCN(C)C2)cc1` (stereo not drawn) [Example S11, 3-(carboxymethyl)-1-methyl-3-(4-pentylphenylsulfonamido)piperidinium 2,2,2-trifluoroacetate], the “activity against cancer cell lines” value in experiment [1] is given as “did not exihibit activity at 10 μM”. In experiment [2], this molecule showed a 50% inhibitory concentration (IC50) of 1 to 10 µM.

Turning to `CCCCCCCCc1ccc(NS(=O)(=O)NC2(CC(=O)O)CNC2)cc1.O=C(O)C(F)(F)F` [Example S28, 3-(carboxymethyl)-3-(N-(4-octylphenyl)sulfamoylamino)azetidinium 2,2,2-trifluoroacetate], the “Percentage of Growth Inhibition” value amounted to 0.3077% in experiment [3]; 0.6043% in experiment [4]; 0.06989 in experiment [5]; 0.04154% in experiment [6]; 0.04727% in experiment [7]; 0.06675% in experiment [8]. The IC50 in experiment [2] is > 2500 µM.
